Laboratory results taken from PMC6911004, “Fragment-based screening identifies molecules targeting the substrate-binding ankyrin repeat domains of tankyrase” (Scientific Reports, 2019).

Columns and labels:
Test in all cases: WaterLOGSY NMR with mutant ARC
Assay type in all cases: binding
[1] = target: T1, TNKS2 ARC4 aromatic glycine sandwich (YY536/569AA) (Homo sapiens, UniProt Q9H2K2, Y536A/Y569A)
T1 construct: TNKS2 ARC4 (488–649); His6-GST; made in house; host or cells: E. coli BL21-CodonPlus (DE3)-RIL
Description: (§1) We used three previously designed TNKS2 ARC4 mutant variants[4] to explore potential binding determinants for fragment 9. A WFE591/593/598AAA triple-mutation abrogates three key residues in the “arginine cradle”; YY536/569AA truncates two tyrosine residues that form the “glycine sandwich”, and L560W introduces a bulky residue into the “central patch” that sterically clashes with the TBM peptide (see Fig. 5A,B for locations of the mutated residues). We tested binding of compound 9 to the wild-type and mutant ARCs by ligand-observed NMR, using the relaxation-edited assay (Fig. 5C, Table 4). […] Binding was impaired but not abolished for the “central patch” mutant variant (L560W).
(§2) Fragments were dispensed in duplicate into a 384-well plate (250 nL, 100 mM stock in DMSO). Wells were backfilled with DMSO (2.25 μL). Tankyrase ARC protein (47.5 μL in 25 mM HEPES-NaOH pH7.5, 100 mM NaCl, 2 mM TCEP, 10% D2O; 20 μM final protein concentration in the assay) was added to the samples containing protein; buffer only (47.5 μL) was added to the compound-only samples. Solutions were transferred to 1.7 mm NMR tubes using a Gilson liquid handling system. ^1H NMR spectra were recorded, with the DMSO signal dampened. The bulk water signal at 4.7 ppm was selectively inverted. Data were processed using Bruker Topspin 3.14[66].

[2] = target: T2, TNKS2 ARC4 central patch (L560W) (Homo sapiens, UniProt Q9H2K2, L560W)
T2 construct: TNKS2 ARC4 (488–649); His6-GST; made in house; host or cells: E. coli BL21-CodonPlus (DE3)-RIL
Description: as §1, §2

[3] = target: T3, TNKS2 ARC4 arginine cradle (WFE591/593/598AAA) (Homo sapiens, UniProt Q9H2K2, E598A/F593A/W591A)
T3 construct: The cell was filled with TNKS2 ARC4 (488–649); His6-GST; made in house; host or cells: E. coli
Description: as §1, §2

SMILES: O=C(NCc1ccco1)c1ccc2nccnc2c1 [compound 9]
- waterLOGSY [1]: positive NOE
- waterLOGSY [2]: positive NOE
- waterLOGSY [3]: negative NOE
